Read-outs that look alike come from different tables or passages of the source.
Columns and labels:
[1] = biological target: T1, beta-catenin/TCF4 engagement (Homo sapiens, UniProt P35222); experiment: Nano-BRET target engagement assay (B-cat-Halo & TCF4-Luc in HEK293 cells); format: cell-based
T1 construct: expressed in transfected cells; host or cells: HEK293
T1 sequence (P35222 1-781): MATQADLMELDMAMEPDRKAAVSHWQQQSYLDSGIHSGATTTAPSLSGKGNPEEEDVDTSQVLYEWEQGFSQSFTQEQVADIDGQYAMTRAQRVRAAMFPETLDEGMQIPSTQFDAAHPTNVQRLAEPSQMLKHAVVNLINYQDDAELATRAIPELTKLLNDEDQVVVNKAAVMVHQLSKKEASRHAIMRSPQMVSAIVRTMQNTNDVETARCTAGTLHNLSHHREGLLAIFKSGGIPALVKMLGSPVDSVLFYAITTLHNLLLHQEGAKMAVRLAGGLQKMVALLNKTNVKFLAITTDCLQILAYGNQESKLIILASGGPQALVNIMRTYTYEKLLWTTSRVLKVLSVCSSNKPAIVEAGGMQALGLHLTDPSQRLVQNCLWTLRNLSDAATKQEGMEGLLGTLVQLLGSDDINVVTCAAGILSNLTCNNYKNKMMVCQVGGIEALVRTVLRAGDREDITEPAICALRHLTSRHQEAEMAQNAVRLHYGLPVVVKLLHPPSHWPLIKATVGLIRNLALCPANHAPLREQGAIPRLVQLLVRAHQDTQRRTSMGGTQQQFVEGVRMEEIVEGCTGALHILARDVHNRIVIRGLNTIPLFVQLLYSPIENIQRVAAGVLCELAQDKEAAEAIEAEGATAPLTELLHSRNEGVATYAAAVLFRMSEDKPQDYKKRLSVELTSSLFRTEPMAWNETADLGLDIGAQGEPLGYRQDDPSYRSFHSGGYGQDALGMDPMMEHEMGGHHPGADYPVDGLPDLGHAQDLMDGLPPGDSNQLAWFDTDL

[2] = biological target: T2, full-length beta-Catenin (Uniprot ID P35222) (Homo sapiens, UniProt P35222); experiment: Fluorescence polarization IC50 (beta-catenin / 5FAM-TCF4 10-53 competition); format: binding
T2 construct: 10 nM full-length beta-Catenin (Uniprot ID P35222)
T2 sequence (P35222 1-781): T1 sequence (P35222 1-781)

[3] = absolute IC50; read-out: NanoBRET Abs IC50
[4] = fluorescence polarization; read-out: beta-Catenin FP IC50

Structure (SMILES) | IC50 [1, 3] [µM] | IC50 [2, 4] [µM] | IC50 ([1]; read-out: NanoBRET Abs IC50; absolute IC50) [µM] | IC50 ([2]; read-out: beta-Catenin FP IC50; fluorescence polarization) [µM]
CC(=O)N1CCC[C@]12CC=CCCCC1(CCCC=CCCCOC(=O)N3CC[C@@](C(=O)N[C@@H](Cc4ccsc4)C(=O)N[C@@H](Cc4csc5ccccc45)C(=O)N[C@@H](CC(N)=O)C(=O)N[C@@H](CC(C)C)C(=O)N[C@@H](CC(C)C)C(=O)N[C@@H](CC(C)C)C(=O)N[C@@H](CC(C)C)C(=O)N[C@@H](CC(C)C)C(N)=O)(C3)NC(=O)[C@H](CC(C)C)NC(=O)[C@H](Cc3ccccc3)NC(=O)[C@H](C)NC(=O)[C@H](C)NC(=O)[C@H](Cc3cccc(C(=O)O)c3)NC(=O)[C@H](CC(=O)O)NC1=O)NC(=O)[C@H](CC(C)(C)C)NC(=O)[C@H](CC(=O)O)NC2=O (stereo partly drawn) [I-2279, Ac-PL3-Asp-Npg-B5-Asp-3COOHF-Ala-Ala-Phe-Leu-PyrS2-3Thi-BztA-Asn-Leu-Leu-Leu-Leu-Leu-NH2] | – | – | > 20 | 7.23
CC(=O)N1CCC[C@]12CC=CCCCC1(CCCC=CCCCCCC[C@@](C)(C(=O)N[C@@H](Cc3ccccc3)C(=O)N[C@@H](Cc3csc4ccccc34)C(=O)N[C@@H](CCC(N)=O)C(N)=O)NC(=O)[C@H](CCC(N)=O)NC(=O)[C@H](Cc3ccccc3)NC(=O)[C@H](C)NC(=O)[C@H](C)NC(=O)[C@H](CCC(=O)O)NC(=O)[C@H](CC(=O)O)NC1=O)NC(=O)[C@H](CO)NC(=O)[C@H](CC(=O)O)NC2=O (stereo partly drawn) [I-1526, Ac-PL3-Asp-Ser-B5-Asp-Glu-Ala-Ala-Phe-Gln-S8-Phe-BztA-Gln-NH2] | > 20 | 0.084 | – | –
CCCC[C@@H]1NC(=O)[C@H](CC(=O)O)NC(=O)[C@]2(CC=CCCCC3(CCCC=CCCCOC(=O)N4CC[C@@](C(=O)N[C@@H](Cc5ccsc5)C(=O)N[C@@H](Cc5csc6ccccc56)C(=O)N[C@@H](CCC(N)=O)C(N)=O)(C4)NC(=O)[C@H](CC(C)C)NC(=O)[C@H](Cc4ccccc4)NC(=O)[C@H](C)NC(=O)[C@H](C)NC(=O)[C@H](CN(CC(=O)O)CC(F)(F)F)NC(=O)[C@H](CC(=O)O)NC3=O)NC1=O)CCCN2C(C)=O (stereo partly drawn) [I-1777, Ac-PL3-Asp-nLeu-B5-Asp-TfeGA-Ala-Ala-Phe-Leu-PyrS2-3Thi-BztA-Gln-NH2] | 8.7 | 0.008 | – | –
CC(=O)N1CCC[C@]12CC=CCCCC1(CCCC=CCCCCCC[C@@](C)(C(=O)N[C@@H](Cc3ccsc3)C(=O)N[C@@H](Cc3csc4ccccc34)C(=O)N[C@@H](CCC(N)=O)C(N)=O)NC(=O)[C@H](CCO)NC(=O)[C@H](Cc3ccccc3)NC(=O)[C@H](C)NC(=O)[C@H](C)NC(=O)[C@H](CC(=O)O)NC(=O)[C@H](CC(=O)O)NC1=O)NC(=O)[C@H](CC(C)(C)C)NC(=O)[C@H](CC(=O)O)NC2=O (stereo partly drawn) [I-1389, Ac-PL3-Asp-Npg-B5-Asp-Asp-Ala-Ala-Phe-Hse-S8-3Thi-BztA-Gln-NH2] | 9.2 | 0.009 | – | –
CC(=O)N1CCC[C@]12CC=CCCCC1(CCCC=CCCCOC(=O)N3CC[C@@](C(=O)N[C@@H](Cc4ccsc4)C(=O)N[C@@H](Cc4csc5ccccc45)C(=O)N[C@@H](CC(C)C)C(N)=O)(C3)NC(=O)[C@H](CC(C)C)NC(=O)[C@H](Cc3ccccc3)NC(=O)[C@H](C)NC(=O)[C@H](C)NC(=O)[C@H](CN(CC(=O)O)CC(F)(F)F)NC(=O)[C@H](CC(=O)O)NC1=O)NC(=O)[C@H](CC(C)(C)C)NC(=O)[C@H](CC(=O)O)NC2=O (stereo partly drawn) [I-1747, Ac-PL3-Asp-Npg-B5-Asp-TfeGA-Ala-Ala-Phe-Leu-PyrS2-3Thi-BztA-Leu-NH2] | > 20 | 0.187 | – | –
CC(=O)N1CCC[C@]12CC=CCCCC1(CCCC=CCCCOC(=O)N3CC[C@@](C(=O)N[C@@H](Cc4ccsc4)C(=O)N[C@@H](Cc4csc5ccccc45)C(=O)N[C@@H](CC(N)=O)C(N)=O)(C3)NC(=O)[C@H](CC(C)C)NC(=O)[C@H](Cc3ccccc3)NC(=O)[C@H](C)NC(=O)[C@H](C)NC(=O)[C@H](CN(CC(=O)O)CC(F)(F)F)NC(=O)[C@H](CC(=O)O)NC1=O)NC(=O)[C@H](CC(C)(C)C)NC(=O)[C@H](CC(=O)O)NC2=O (stereo partly drawn) [I-1705, Ac-PL3-Asp-Npg-B5-Asp-TfeGA-Ala-Ala-Phe-Leu-PyrS2-3Thi-BztA-Asn-NH2] | 2.9 | 0.009 | – | –
CC(=O)N1CCC[C@]12CC=CCCCC1(CCCC=CCCCOC(=O)N3CC[C@@](C(=O)N[C@@H](Cc4ccccc4)C(=O)N[C@@H](Cc4csc5ccccc45)C(=O)N[C@@H](CCC(N)=O)C(N)=O)(C3)NC(=O)[C@H](CC(C)C)NC(=O)[C@H](Cc3ccccc3)NC(=O)[C@H](C)NC(=O)[C@H](C)NC(=O)[C@H](CN(CC(=O)O)CC(F)(F)F)NC(=O)[C@H](CC(=O)O)NC1=O)NC(=O)[C@H](CC(C)(C)C)NC(=O)[C@H](CC(=O)O)NC2=O (stereo partly drawn) [I-1700, Ac-PL3-Asp-Npg-B5-Asp-TfeGA-Ala-Ala-Phe-Leu-PyrS2-Phe-BztA-Gln-NH2] | 4.8 | 0.016 | – | –

Second part, led by results:

IC50 [1, 3] [µM] | IC50 [2, 4] [µM] | Structure (SMILES) | IC50 ([1]; read-out: NanoBRET Abs IC50; absolute IC50) [µM] | IC50 ([2]; read-out: beta-Catenin FP IC50; fluorescence polarization) [µM]
14.7 | 0.007 | CC[C@@H]1NC(=O)[C@H](Cc2ccccc2)NC(=O)[C@H](C)NC(=O)C(C)(C)NC(=O)[C@H](Cc2cccc(C(=O)O)c2)NC(=O)[C@H](CC(=O)O)NC(=O)C2(CCCC=CCCCOC(=O)N3CC[C@@](C(=O)N[C@@H](Cc4ccsc4)C(=O)N[C@@H](Cc4csc5ccccc45)C(=O)N[C@@H](CCC(=O)N4CCOCC4)C(N)=O)(C3)NC1=O)CCCC=CC[C@]1(CCCN1C(C)=O)C(=O)N[C@@H](CC(=O)O)C(=O)N[C@@H](CC(C)(C)C)C(=O)N2 (stereo partly drawn) [I-2558, Ac-PL3-Asp-Npg-B5-Asp-3COOHF-Aib-Ala-Phe-Abu-PyrS2-3Thi-BztA-[Morph]GlnR-NH2] | – | –
> 20 | 0.147 | CC(=O)N1CCC[C@]12CC=CCCCC1(CCCC=CCCCOC(=O)N3CC[C@@](C(=O)N[C@@H](Cc4ccsc4)C(=O)N[C@@H](Cc4csc5ccccc45)C(=O)N[C@@H](CC(N)=O)C(N)=O)(C3)NC(=O)[C@H](CC(N)=O)NC(=O)[C@H](Cc3ccccc3)NC(=O)[C@H](C)NC(=O)C(C)(C)NC(=O)[C@H]([C@@H](C)O)NC(=O)[C@H](CC(N)=O)NC1=O)NC(=O)[C@H](CC(C)(C)C)NC(=O)[C@H](CC(=O)O)NC2=O (stereo partly drawn) [I-2415, Ac-PL3-Asp-Npg-B5-Asn-Thr-Aib-Ala-Phe-Asn-PyrS2-3Thi-BztA-Asn-NH2] | – | –
29.8 | 0.038 | CC(=O)N1CC2CC1C(=O)N[C@@H](CC(=O)O)C(=O)N[C@@H](CC(C)(C)C)C(=O)NC1(CCCC=CCCCOC(=O)N3CC[C@@](C(=O)N[C@@H](Cc4ccccc4Cl)C(=O)N[C@@H](Cc4csc5ccccc45)C(=O)N[C@@H](CCC(N)=O)C(N)=O)(C3)NC(=O)[C@H]([C@@H](C)O)NC(=O)[C@H](Cc3ccccc3)NC(=O)[C@H](C)NC(=O)[C@H](C)NC(=O)[C@H](CN(CC(=O)O)CC(F)(F)F)NC(=O)[C@H](CC(=O)O)NC1=O)CCCC=CCCC(=O)O2 (stereo partly drawn) [I-1846, Ac-HyPEs5-Asp-Npg-B5-Asp-TfeGA-Ala-Ala-Phe-Thr-PyrS2-2C1F-BztA-Gln-NH2] | – | –
17.5 | 0.031 | CC(=O)N1CCC[C@]12CC=CCCCC1(CCCC=CCCCOC(=O)N3CC[C@@](C(=O)N[C@@H](Cc4ccsc4)C(=O)N[C@@H](Cc4csc5ccccc45)C(=O)N[C@@H](CCC(N)=O)C(N)=O)(C3)NC(=O)[C@H](CC(C)C)NC(=O)[C@H](Cc3ccccc3)NC(=O)[C@H](C)NC(=O)[C@H](C)NC(=O)[C@H](CCN(CC(=O)O)C(=O)c3c(F)c(F)c(F)c(F)c3F)NC(=O)[C@H](CC(=O)O)NC1=O)NC(=O)[C@H](CC(C)(C)C)NC(=O)[C@H](CC(=O)O)NC2=O (stereo partly drawn) [I-2252, Ac-PL3-Asp-Npg-B5-Asp-[PfBz]GAbu-Ala-Ala-Phe-Leu-PyrS2-3Thi-BztA-Gln-NH2] | – | –
18.6 | 0.05 | CC(=O)N1CCC[C@]12CC=CCCCC1(CCCC=CCCCOC(=O)N3CC[C@@](C(=O)N[C@@H](Cc4ccsc4)C(=O)N[C@@H](Cc4csc5ccccc45)C(=O)N[C@@H](CO)C(N)=O)(C3)NC(=O)[C@H](CC(C)C)NC(=O)[C@H](Cc3ccccc3)NC(=O)[C@H](C)NC(=O)[C@H](C)NC(=O)[C@H](Cc3cc(C(=O)O)cc(C(F)(F)F)c3)NC(=O)[C@H](CC(=O)O)NC1=O)NC(=O)[C@H](CC(C)(C)C)NC(=O)[C@H](CC(=O)O)NC2=O (stereo partly drawn) [I-2209, Ac-PL3-Asp-Npg-B5-Asp-5F3Me3COOHF-Ala-Ala-Phe-Leu-PyrS2-3Thi-BztA-Ser-NH2] | – | –
14.2 | 0.014 | CC(=O)N1CCC[C@]12CC=CCCCC1(CCCC=CCCCOC(=O)N3CC[C@@](C(=O)N[C@@H](Cc4ccsc4)C(=O)N[C@@H](Cc4cccc(Cl)c4)C(=O)N[C@@H](CCC(N)=O)C(N)=O)(C3)NC(=O)[C@H](CC(C)C)NC(=O)[C@H](Cc3ccccc3)NC(=O)[C@H](C)NC(=O)[C@H](C)NC(=O)[C@H](Cc3cccc(C(=O)O)c3)NC(=O)[C@H](CC(=O)O)NC1=O)NC(=O)[C@H](CC(C)(C)C)NC(=O)[C@H](CC(=O)O)NC2=O (stereo partly drawn) [I-2224, Ac-PL3-Asp-Npg-B5-Asp-3COOHF-Ala-Ala-Phe-Leu-PyrS2-3Thi-3C1F-Gln-NH2] | – | –

From patent US20240116985A1, “STAPLED PEPTIDES AND METHODS THEREOF” (priority 2020, published 2024)
